Results from US20050043262A1, “Novel specific inhibitor of the cyclin kinase inhibitor p21Waf1/Cip1 and methods of using the inhibitor” (priority 2000, published 2005).

Assays:
[1] = system: caspase-3; experiment: Caspase-3 activity (CaspACE colorimetric assay) in MCF-7 cells; format: cell-based, human; settings: MCF-7 cells (lack caspase-3)
Method: Caspase-3 Activity: The CaspACE Assay System was used to measure the activity of caspase-3. After incubation under appropriate conditions, the cells were lysed in CaspACE lysis buffer, and protein concentration was determined by dye reagent protein assay (Bio-Rad, Hercules, Calif.). […] The lysates with equal protein amounts were incubated with DEVD-p-nitroaniline substrate for 4 hours at 37° C. The reaction products were detected at 405 nm using a PowerWave X automated plate reader (Bio-Tek Instruments).
As another confirmatory test for antisense p21 ODN-mediated apoptosis, caspase-3 activation was assessed. Members of the caspase family of proteases are essential components of an evolutionarily conserved cell death pathway in multicellular eukaryotes and play key roles in inflammation and apoptosis in mammalian cells. Caspase-3 has substrate specificity for the amino acid sequence DEVD (Asp-Glu-Val-Asp) and is inhibited by the tetrapeptide inhibitor Ac-DEVD-CHO; its catalytic activity was assessed colorimetrically using the labeled Ac-DEVD-pNA substrate. […] T47D cells were grown to confluence, serum starved for 24 hours, and lipofected with antisense p21 or control ODN at the concentrations indicated. Caspase-3 activity was assessed as described in “Capase-3 Activity” using a colorimetric method. […]

[2] = system: MCF7 cells; experiment: [3H]thymidine incorporation in MCF7 cells; format: cell-based, human; settings: 200 nM, serum 24 hours
Method: Cell Culture and DNA Synthesis: T47D (ductal carcinoma) and MCF7 (adenocarcinoma) human breast cancer cell lines were obtained from the American Type Culture Collection. All cell lines were maintained according to vendors' recommendations. The cells were growth arrested by placing them in serum-free quiescence media and exposed to 10% serum-containing media as indicated. [^3H]Thymidine incorporation was assessed as described previously (Weiss, R. H., and Nuccitelli, R., J. Biol. Chem., 267: 5608-5613, 1992).
Apoptotic cells will not incorporate thymidine into DNA during S phase, but [^3H]thymidine incorporation experiments will not distinguish between G1→S arrest and apoptosis. Serum-starved cells were transfected with 200 nM antisense p21 and control ODN, stimulated with serum-containing media, and examined for their ability to incorporate [^3H]thymidine into DNA. […] Antisense p21 attenuates [^3H]thymidine incorporation. MCF7 and T47D cells were grown to confluence, serum starved for 24 hours, and lipofected with antisense p21 (AS) or control (SC) ODN at the concentrations indicated (in nM). […] Serum was added for 24 hours, and the cells were incubated with [^3H]thymidine for the last 6 hours. DNA synthesis was assessed by [^3H]thymidine incorporation and is expressed as mean +SD of 3 wells/data point. *, P <0.05 compared with antisense p21 ODN transfection. […]

[3] = system: A10 VSM cells; experiment: Cell proliferation by counting adherent cells; format: cell-based, rat; settings: after 18 hours of PDGF incubation
Text: Cell culture, DNA synthesis, and proliferation assays: Cultures of both A10 and A7r5 rat aortic VSM cells were obtained from American Type Culture Collection (Rockville Md.). Bovine aortic smooth muscle cells were supplied by Martha O'Donnell (O'Donnell and Owen, 1986 Proc Natl. Acad. Sci.US.A., 83, p. 6132-6136). All of the cell lines were maintained as described (Weiss et al., 1998 Am. J. Physiol., 274, p. C1521-C1529) and were used between passages 15 and 25. The cells were growth-arrested by placing them in serum-free quiescence medium, exposed to growth factors as indicated, and [^3H]thymidine incorporation assessed as previously described (Weiss and Nuccitelli, 1992a J. Biol. Chem., 267, p. 5608-5613). Cell proliferation was assessed by counting of adherent cells on 4 representative fields under 100× magnification in each of 3 wells per experimental condition.
Antisense techniques were employed to examine the dependence of G1-phase progression on p21^Waf1/Cip1 in the VSM cell lines (Crooke, 1993 Antisense research and applications. Boca Raton, CRC.). […] DNA synthesis was assessed by [^3H]-thymidine incorporation and is expressed as mean ± s.e.m. of three wells per data point. […] After 18 hours of PDGF incubation, the cells were counted by examining representative fields at 100× magnification. The average number of cells in 4 random fields in each well was determined.

[4] = system: A431 cells; experiment: [3H]thymidine incorporation (DNA synthesis) in A431 cells; format: cell-based, human
Method: FIG. 9A-D are bar graphs showing Antisense p21^Waf1/Cip1 oligodeoxynucleotide has no significant effect DNA synthesis in PMA-inhibitable A431 cells, as described in Example II, infra. […] A431 cells were placed in serum-free medium overnight and then stimulated with (A) PDGF-BB (30 ng/ml), (B) 10% serum-containing medium, or (C) PDGF-BB or PMA (100 ng/ml) for another 8 hours before [^3H]-thymidine was added for overnight incubation. (D) A10 VSM cells were transfected with sense and antisense p21^Waf1/Cip1 oligonucleotides as above and treated similarly to (B). DNA synthesis was assessed by [^3H]-thymidine incorporation and is expressed as mean ±s.e.m. of three wells per data point. The absolute counts differ between experiments due to different confluency of the cells. The experiments shown are representative of two separate experiments.
Cell culture and DNA synthesis: Cultures of A10 and A431 cells were obtained from American Type Culture Collection (Rockville Md), were maintained as described (Weiss et al. 1998, Am. J. Physiol. 274, C1521-C1529), and were used between passages 15 and 24 or 25 and 35, respectively. The cells were growth-arrested by placing them in serum-free quiescence medium, exposed to growth factors as indicated, and [^3H]thymidine incorporation assessed as previously described (Weiss and Nuccitelli, 1992, J. Biol. Chem. 267, 5608-5613).
This A431 data is in contrast with that obtained in a variety of VSM cell lines, where cell growth was inhibited by similar oligodeoxynucleotide concentrations in cell stimulated with both PDGF-BB and serum (FIG. 9d).

Substance	caspase-3 cleavage (activity) [1]	[3H]thymidine incorporation (DNA incorporation) [2]	cell number / cell proliferation [3]	cell number / cell proliferation ([3]; listed as antisense p21^Waf1/Cip1 oligodeoxynucleotide)	DNA synthesis upon stimulation with PDGF or serum ([4]; 0 to 400 nM oligodeoxynucleotide)	difference in DNA synthesis between sense and antisense ([4]; up to 800 nM)
5′-ATC-CCC-AGC-CGG-TTC-TGA-CAT-3′ (antisense ATCCCCAGCCGGTTCTGACAT; listed as DNA, chemistry not fully specified) [antisense p21 ODN]	did not show significant caspase-3 cleavage products	significant attenuation	–	–	–	–
5′-GACATCACCAGGATCGGACAT-3′	–	–	parallel the alterations in DNA synthesis	inhibited	no significant change	no difference
